Experimental data: PubChem BioAssay AID1963865 (Molecular Pharmacology Branch, DTP, NCI, 2024)

Test system: KRAS PDC multicell spheroid viability
Assay: Anticancer human tumor 825966-067-R-J1-PDC patient-derived colon carcinoma cell line growth inhibition [KRAS2]
Conditions: for viability, T/C: stronger effect = lower value
Excerpt: Multicellular complex tumor spheroid response to RAS pathway inhibitors in combination with a targeted agents in patient-derived cell lines with oncogenic KRAS variants from multiple cancer types
A high-throughput screen of multi-cell type tumor spheroids was designed to identify active combinations of targeted small molecules and KRAS pathway inhibitors. Complex spheroids include a stromal component modeled by human endothelial cells (HUVEC) and fibroblasts modeled by human mesenchymal stem cells (MSCs). The concentration ranges selected for each drug and investigational agent were based upon clinically achievable concentrations if the clinical Cmax of the agent was known.
Compounds. The drugs and investigational agents: BI-3406 (NSC825286), BAY-293 (NSC824723), batoprotafib (TNO155; NSC825523), sotorasib (AMG 510; NSC818433), MRTX1257 (NSC819558), elimusertib (BAY 1895344; NSC800525), molibresib (GSK525762; NSC774829), temuterkib (LY3214996; NSC803410), venetoclax (NSC766270), alisertib (NSC759677), olaparib (NSC753686), talazoparib (NSC767125), erdafitinib (NSC781556), ipatasertib (NSC767898), cabozantinib (NSC761068), nintedanib (NSC756659), abemaciclib (NSC768073), docetaxel (NSC628503), trametinib (NSC758246), and sapanisertib (NSC764658) were obtained from the National Cancer Institute (NCI) Developmental Therapeutics Program Chemical Repository. The FDA-approved anticancer drug set is available from the Developmental Therapeutics Program. […] The stock solutions were prepared in dimethyl sulfoxide (DMSO, Sigma-Aldrich, St. Louis, MO, cat. D2650) at 800-fold the tested concentration and stored at -70 degrees C prior to their use. All drugs and investigational agents were tested over a range starting from a high concentration at or near the clinical Cmax and decreasing in half-log increments. If the clinical Cmax for an agent had not been determined, the highest concentration tested was 10 microM.
Cell Culture. All cells were maintained in an incubator at 37 degrees C and 5% CO2 with 95% humidity. The PDC lines were cultured according to standard operating procedures established by the NCI PDMR (https://pdmr.cancer.gov/sops/default.htm). Briefly, all PDCs were thawed and cultured in Matrigel-coated flasks prepared with a working solution of 1X Ham's F-12 nutrient mix, without supplementation (Invitrogen, Waltham, MA, cat. 11765054), 100 U/mL penicillin-streptomycin (Invitrogen, cat. 15140122), and 2.5% Matrigel (Corning Inc., Corning, NY, cat. 354248) for the first three passages. All PDCs were cultured in complete DMEM/F-12 media containing advanced DMEM/F-12 (Invitrogen, cat. 12634028), 4.9% defined fetal bovine serum, heat inactivated (HyClone Laboratories Inc., Logan, UT, cat. SH30070.03HI), 389 ng/mL hydrocortisone (Sigma-Aldrich, cat. H4001), 9.7 ng/mL human EGF recombinant protein (Invitrogen, cat. PHG0313), 23.4 microg/mL adenine (Sigma-Aldrich, cat. A2786), 97.3 U/mL penicillin-streptomycin (Invitrogen, cat. 15140122), 1.9 mM L-glutamine (Invitrogen, cat. 25030081), and 9.7 microM Y-27632 dihydrochloride (Tocris Bioscience, Bristol, United Kingdom, cat. 1254). The PDCs were cultured in complete DMEM/F12 media without 9.7 microM Y-27632 dihydrochloride for at least two passages prior to the screen. The established cell line HOP-62 was cultured in RPMI 1640 medium, HEPES (Invitrogen, cat. 22400105) with 10% defined fetal bovine serum (HyClone Laboratories Inc., cat. SH30070.03) and 2 mM L-glutamine (Invitrogen, cat. 25030081). The pooled donor HUVEC were cultured in endothelial cell growth medium 2 (PromoCell, Heidelberg, Germany, cat. C-22011) and the hMSC were cultured in mesenchymal stem cell growth medium 2 (PromoCell, cat. C-28009). For all experiments, HUVEC and hMSC were used at passages </=5, while the malignant cell lines were used at passages </=15. […]

[1] = curve of first compound, second compound 0.1 µM
[2] = curve of first compound, second compound 0.316 µM
[3] = curve of first compound, second compound 1 µM
[4] = curve of first compound, second compound 3.16 µM
[5] = curve of first compound, second compound 10 µM
[6] = second compound 0.1 µM, first compound 0.0316 µM
[7] = second compound 0.1 µM, first compound 0.1 µM
[8] = second compound 0.1 µM, first compound 0.316 µM
[9] = second compound 0.1 µM, first compound 1 µM
[10] = second compound 0.316 µM, first compound 0.0316 µM
[11] = second compound 0.316 µM, first compound 0.1 µM
[12] = second compound 0.316 µM, first compound 0.316 µM
[13] = second compound 0.316 µM, first compound 1 µM
[14] = second compound 1 µM, first compound 0.0316 µM
[15] = second compound 1 µM, first compound 0.1 µM
[16] = second compound 1 µM, first compound 0.316 µM
[17] = second compound 1 µM, first compound 1 µM
[18] = second compound 3.16 µM, first compound 0.0316 µM
[19] = second compound 3.16 µM, first compound 0.1 µM
[20] = second compound 3.16 µM, first compound 0.316 µM
[21] = second compound 3.16 µM, first compound 1 µM
[22] = second compound 10 µM, first compound 0.0316 µM
[23] = second compound 10 µM, first compound 0.1 µM
[24] = second compound 10 µM, first compound 0.316 µM
[25] = second compound 10 µM, first compound 1 µM
[26] = second compound 0.1 µM, first compound 3.16 µM
[27] = second compound 0.1 µM, first compound 10 µM
[28] = second compound 0.316 µM, first compound 3.16 µM
[29] = second compound 0.316 µM, first compound 10 µM
[30] = second compound 1 µM, first compound 3.16 µM
[31] = second compound 1 µM, first compound 10 µM
[32] = second compound 3.16 µM, first compound 3.16 µM
[33] = second compound 3.16 µM, first compound 10 µM
[34] = second compound 10 µM, first compound 3.16 µM
[35] = second compound 10 µM, first compound 10 µM
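Also: spheroids exposed to compounds for 7 days.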
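For viability, T/C in this document: 100% = DMSO vehicle control viability.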

SMILES	IC50 [1] [µM]	IC50 [2] [µM]	IC50 [3] [µM]	IC50 [4] [µM]	IC50 [5] [µM]	viability, T/C [6] [%]	viability, T/C [7] [%]	viability, T/C [8] [%]	viability, T/C [9] [%]	viability, T/C [10] [%]	viability, T/C [11] [%]	viability, T/C [12] [%]	viability, T/C [13] [%]	viability, T/C [14] [%]	viability, T/C [15] [%]	viability, T/C [16] [%]	viability, T/C [17] [%]	viability, T/C [18] [%]	viability, T/C [19] [%]	viability, T/C [20] [%]	other results
CCN1CCN(Cc2ccc(Nc3ncc(F)c(-c4cc(F)c5nc(C)n(C(C)C)c5c4)n3)nc2)CC1 + COc1cc2nc(C)nc(NC(C)c3cc(N)cc(C(F)(F)F)c3)c2cc1OC1CCOC1	> 1	> 1	> 1	> 1	0.0319	121	170	129	183	111	132	172	161	104	152	179	92.7	161	158	171	viability, T/C (second compound 0.1 µM, first compound 0.00316 µM): 99.6%; viability, T/C (second compound 0.1 µM, first compound 0.01 µM): 111%; viability, T/C (second compound 0.316 µM, first compound 0.00316 µM): 99.3%; viability, T/C (second compound 0.316 µM, first compound 0.01 µM): 109%; viability, T/C (second compound 1 µM, first compound 0.00316 µM): 103%; viability, T/C (second compound 1 µM, first compound 0.01 µM): 109%; viability, T/C (second compound 3.16 µM, first compound 0.00316 µM): 118%; viability, T/C (second compound 3.16 µM, first compound 0.01 µM): 142%; viability, T/C [21]: 50.1%; viability, T/C (second compound 10 µM, first compound 0.00316 µM): 82.9%; viability, T/C (second compound 10 µM, first compound 0.01 µM): 87.8%; viability, T/C [22]: 38.3%; viability, T/C [23]: 31.5%; viability, T/C [24]: 5.53%; viability, T/C [25]: 1.46%
Cn1ncnc1[C@H]1c2n[nH]c(=O)c3cc(F)cc(c23)N[C@@H]1c1ccc(F)cc1	–	–	–	–	–	–	–	–	–	–	–	–	–	–	–	–	–	–	–	–	viability, T/C (compound 0.01 µM): 82.8% [middle of 5 runs]; IC50 (curve of compound): > 0.1 µM
O=C(c1cc(Cc2n[nH]c(=O)c3ccccc23)ccc1F)N1CCN(C(=O)C2CC2)CC1 + COc1cc2nc(C)nc(NC(C)c3cc(N)cc(C(F)(F)F)c3)c2cc1OC1CCOC1	> 10	> 10	> 10	> 10	> 10	84.2	91.5	92.3	77.2	80.3	79.2	95.5	80.5	79.4	81.5	69.1	87	104	115	117	viability, T/C [26]: 69.3%; viability, T/C [27]: 75%; viability, T/C [28]: 98.9%; viability, T/C [29]: 95.9%; viability, T/C [30]: 68.1%; viability, T/C [31]: 89.6%; viability, T/C [21]: 113%; viability, T/C [32]: 96.8%; viability, T/C [33]: 88.8%; viability, T/C [22]: 115%; viability, T/C [23]: 121%; viability, T/C [24]: 122%; viability, T/C [25]: 117%; viability, T/C [34]: 72%; viability, T/C [35]: 89.5%
CC1OCC2(CCN(c3cnc(Sc4ccnc(N)c4Cl)c(N)n3)CC2)C1N (configuration not stated) + COc1cc2nc(C)nc(NC(C)c3cc(N)cc(C(F)(F)F)c3)c2cc1OC1CCOC1	> 10	6.76	7.2	5.48	0.557	88.2	83.7	74	75.6	87.4	89	88	95.9	89	88	81.7	91.3	93.9	104	101	viability, T/C [26]: 100%; viability, T/C [27]: 58%; viability, T/C [28]: 95.5%; viability, T/C [29]: 28.8%; viability, T/C [30]: 89.4%; viability, T/C [31]: 34.7%; viability, T/C [21]: 98.5%; viability, T/C [32]: 91.6%; viability, T/C [33]: 4.35%; viability, T/C [22]: 76.5%; viability, T/C [23]: 68.7%; viability, T/C [24]: 63.1%; viability, T/C [25]: 37.4%; viability, T/C [34]: 8.46%; viability, T/C [35]: 0.53%
